The values below are quoted from earlier work in patent US8097743B2, “Process for manufacture of blocked mercaptosilane coupling agents” (Momentive Performance Materials Inc., priority 2002, dated 2012).

For this data set the following is noted: cited from earlier work.

In the case of `CCN(CC)CC` [TEA, triethylamine], under “below 18.7° C.”, the “Miscibility with water (classification)” value is listed as “completely miscible”.
Regarding `CCCN(CCC)CCC` [TNPA, tri-n-propylamine], the “Solubility in water (classification)” value is on record as “very slightly soluble”.
